The record followed here is US20070197509A1, “Compositions and methods for modulating gated ion channels” (PainCeptor Pharma Corporation, priority 2005, published 2007).

“Also recorded” adds a separate entry of the source. Bounds are passed on as bounds.

The first test deals with T1, hASIC1a (Homo sapiens, UniProt P78348).
T1 sequence (P78348 1-528): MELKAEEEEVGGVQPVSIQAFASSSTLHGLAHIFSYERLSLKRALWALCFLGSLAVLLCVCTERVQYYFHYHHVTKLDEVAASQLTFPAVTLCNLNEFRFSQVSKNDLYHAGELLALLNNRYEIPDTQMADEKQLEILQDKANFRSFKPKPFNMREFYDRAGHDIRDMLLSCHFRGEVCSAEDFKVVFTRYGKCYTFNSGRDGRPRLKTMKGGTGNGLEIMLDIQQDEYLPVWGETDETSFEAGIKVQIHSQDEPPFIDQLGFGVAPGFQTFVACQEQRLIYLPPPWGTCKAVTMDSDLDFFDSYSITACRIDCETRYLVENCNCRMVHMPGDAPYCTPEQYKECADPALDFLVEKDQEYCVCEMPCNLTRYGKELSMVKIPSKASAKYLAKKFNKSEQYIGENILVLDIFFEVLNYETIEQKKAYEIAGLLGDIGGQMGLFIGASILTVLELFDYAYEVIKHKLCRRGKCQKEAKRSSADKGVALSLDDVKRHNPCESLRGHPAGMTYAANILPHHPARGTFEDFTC
The test can be described thus: Two-electrode voltage clamp in Xenopus laevis oocytes expressing hASIC1a (OpusExpress). The class given is cell-based. The settings on record: 30 uM, OpusExpress; kind of effect not given. Also on record: expressed in transfected cells; host or cells: Xenopus laevis oocytes, nuclear microinjection of cDNA (e.g. in pCDNA3). Here is the method:
Two-electrode voltage clamp electrophysiological assays in Xenopus laevis oocytes expressing gated ion channels are performed as follows:
Oocytes are surgically removed from adult Xenopus laevis and treated for 2 h at room temperature with 1 mg/ml type I collagenase (Sigma) in Barth's solution under mild agitation. Selected oocytes at stage IV-V are defolliculated manually before nuclear microinjection of 2.5-5 ng of a suitable expression vector, such as pCDNA3, comprising the nucleotide sequence encoding a gated ion channel subunit protein. In such an experiment, the oocytes express homomultimeric proton-gated ion channels on their surface. In an alternate experiment, one, two, three or more vectors comprising the coding sequences for distinct gated ion channel subunits are co-injected in the oocyte nuclei. In the latter case, oocytes express heteromultimeric proton-gated ion channels. […] Once impaled with the microelectrodes, oocytes are continuously superfused at 10-12 ml/min with a modified Ringer's solution containing 97 mM NaCl, 2 mM KCl, 1.8 mM CaCl2, and 10 mM HEPES brought to pH 7.4 with NaOH (Control Ringer). Test Ringer solution is prepared by replacing HEPES with MES and adjusting the pH to the desired acidic value. Compounds of the present invention are prepared in both the Control and Test Ringer solutions and applied to oocytes at room temperature through a computer-controlled switching valve system. […] Similarly, recordings can also be acquired in an automated multichannel oocytes system as the OpusExpress™ (Molecular Devices, Sunnyvale, Calif., USA).
Recordings were acquired from oocytes expressing homomeric hASIC1a using a two-electrode voltage-clamp configuration procedure as described herein.
Consider `Cc1cc(OC2CCN(Cc3ccc(Cl)cc3)CC2)c2ccccc2n1` [Compound 5, 4[1-(4-chloro-benzyl)-piperidin-4-yloxy]-2-methyl-quinoline], for which the “approx. % at 30 uM (OX)” value is “approx. 15% at 30 uM (OX)”.

Staying with this test, now noted: OpusExpress (OX), Tables A-F; h1a printed in some cells only.
For `c1ccc(CN2CCC(Oc3cc(-c4ccccc4)nc4ccccc34)CC2)cc1` [Compound 3, 4-(1-benzyl-piperidin-4-yloxy)-2-phenyl-quinoline], the “Biological Data (IC50 uM) h1a (OX)” value was “Not Active (OX)”.
In the case of `Cc1cc(OC2CCN(C(=O)c3ccccc3)CC2)c2ccccc2n1` [Compound 6, [4-(2-methyl-quinolin-4-yloxy)-piperidin-1-yl]-phenyl-methanone], the “Biological Data (IC50 uM) h1a (OX)” value was “Not Active (OX)”.
For `Cc1cc(OC2CCN(Cc3ccccc3)CC2)c2ccc(Cl)cc2n1` [Compound 9, 4-(1-benzyl-piperidin-4-yloxy)-7-chloro-2-methyl-quinoline], the “Biological Data (IC50 uM) h1a (OX)” value was “Not Active (OX)”.
As to `FC(F)(F)c1cc(OC2CCN(Cc3ccccc3)CC2)c2cccc(C(F)(F)F)c2n1` [Compound 10, 4-(1-benzyl-piperidin-4-yloxy)-2,8-bis-trifluoromethyl-quinoline], the “Biological Data (IC50 uM) h1a (OX)” value is reported as “Not Active (OX)”.
In the case of `Clc1ccc2c(OC3CCN(Cc4ccccc4)CC3)ccnc2c1` [Compound 11, 4-(1-benzyl-piperidin-4-yloxy)-7-chloro-quinoline], the “Biological Data (IC50 uM) h1a (OX)” value is “Not Active (OX)”.
With `Cc1cc(OC2CCN(C(=O)OC(C)(C)C)CC2)c2ccccc2n1` [Compound 12, 4-(2-methyl-quinolin-4-yloxy)-piperidine-1-carboxylic acid tert butyl ester], the “Biological Data (IC50 uM) h1a (OX)” value is on record as “Not Active (OX)”.
As for `Cc1cc(OC2CCN(Cc3ccccc3)CC2)c2cccc(C)c2n1` [Compound 14, 4-(1-benzyl-piperidin-4-yloxy)-2,8-dimethyl-quinoline], the “Biological Data (IC50 uM) h1a (OX)” value is “Not Active (OX)”.
In the case of `Cc1cc(OC2CCN(CC(C)(C)C)CC2)c2ccccc2n1` [Compound 15, 4-[1-(2,2-dimethyl-propyl)-piperidin-4-yloxy]-2-methyl-quinoline], the “Biological Data (IC50 uM) h1a (OX)” value is reported as “Not Active (OX)”.
Still for that read-out and setting: the same measure for `CCc1nc(NC2CCN(Cc3ccccc3)CC2)c2ccccc2n1` [Compound 33, (1-benzyl-piperidin-4-yl)-(2-ethyl-quinazolin-4-yl)-amine]: “Not Active”; for `COc1ccc(-c2cc(C(=O)N3CCN(CCc4ccccc4)CC3)c3ccccc3n2)cc1OC` [Compound 42, [2-(3,4-dimethoxy-phenyl)-quinolin-4-yl]-(4-phenethyl-piperazin-1-yl)-methanone]: “Not Active (OX)”.
For the compound `COc1ccc(-c2cc(C(=O)N3CCN(Cc4ccc5c(c4)OCO5)CC3)c3cc(Cl)ccc3n2)c(O)c1` [Compound 45, (4-benzo[1,3]dioxol-5-ylmethyl-piperazin-1-yl)-[6-chloro-2-(2-hydroxy-4-methoxy-phenyl)-quinolin-4-yl]-methanone], the “Biological Data (IC50 uM) h1a (OX)” value is listed as “Not Active (OX)”.
On the same count and under the same terms, the same measure for `Cc1cc(N2CCN(C(=O)OC(C)(C)C)CC2)c2ccccc2n1` [Compound 59, 4-(2-methyl-quinolin-4-yl)-piperazine-1-carboxylic acid tert-butyl ester]: “Not Active (OX)”; for `Cc1cc(N2CCN(c3ccccc3C#N)CC2)c2ccccc2n1` [Compound 60, 2-[4-(2-methyl-quinolin-4-yl)-piperazin-1-yl]-benzonitrile]: “Not Active (OX)”.
Turning to `Cc1cc(N2CCN(c3ccc([N+](=O)[O-])cc3)CC2)c2ccccc2n1` [Compound 61, 2-methyl-4-[4-(4-nitro-phenyl)-piperazin-1-yl]-quinoline], the “Biological Data (IC50 uM) h1a (OX)” value is “Not Active (OX)”.
Take `O=C(O)c1ccc(Nc2ncnc3ccccc23)cc1` [Compound 102, 4-(quinazolin-4-ylamino)-benzoic acid]: the “Biological Data (IC50 uM) h1a (OX)” value is recorded as “Not Active (OX)”.
With `O=C(O)c1ccc(Nc2ncnc3ccc([N+](=O)[O-])cc23)cc1` [Compound 103, 4-(6-nitro-quinazolin-4-ylamino)-benzoic acid], the “Biological Data (IC50 uM) h1a (OX)” value is “Not Active (OX)”.
As for `Cc1ccc(-c2nc(Nc3ccccc3)c3ccccc3n2)cc1` [Compound 104, Phenyl-(2-p-tolyl-quinazolin-4-yl)-amine], the “Biological Data (IC50 uM) h1a (OX)” value was “Not Active (OX)”.
For the compound `Cc1ccc(-c2nc(NCCCC(=O)O)c3ccccc3n2)cc1` [Compound 105, 4-(2-p-tolyl-quinazolin-4-ylamino)-butyric acid], the “Biological Data (IC50 uM) h1a (OX)” value is “Not Active (OX)”.
Consider `Cc1ccc(-c2nc(N(C)c3ccc(C(=O)O)cc3)c3ccccc3n2)cc1` [Compound 106, 4-[methyl-(2-p-tolyl-quinazolin-4-yl)-amino]-benzoic acid], for which the “Biological Data (IC50 uM) h1a (OX)” value is reported as “Not Active (OX)”.
As for `Cc1ccc(-c2nc(NC3CCN(Cc4ccccc4)CC3)c3ccc(Cl)cc3n2)cc1` [Compound 108, (1-benzyl-piperidin-4-yl)-(7-chloro-2-p-tolyl-quinazolin-4-yl)-amine], the “Biological Data (IC50 uM) h1a (OX)” value is reported as “Not Active (OX)”.
On the same count and under the same terms, to `Cc1ccc(-c2nc(OCCCCCl)c3cc([N+](=O)[O-])ccc3n2)cc1` [Compound 109, 4-(4-chloro-butoxy)-6-nitro-2-p-tolyl-quinazoline] belongs “Not Active (OX)”; to `Cc1ccc(-c2nc(N3CCCCC3)c3ccc(Cl)cc3n2)cc1` [Compound 110, 7-chloro-4-piperidin-1-yl-2-p-tolyl-quinazoline], “Not Active (OX)”; to `CCc1nc(NCCOC)c2ccccc2n1` [Compound 111, (2-ethyl-quinazolin-4-yl)-(2-methoxy-ethyl)-amine], “Not Active (OX)”.

Staying with this test, now noted: OpusExpress (OX), Tables A-F; h1a printed in some cells only; read-out: Biological Data (IC50 uM) h1a (OX).
As to `Cc1cc(OCCCN(C)Cc2ccccc2)c2ccccc2n1` [Compound 1, benzyl-methyl-[3-(2-methyl-quinolin-4-yloxy)-propyl]-amine], the IC50 (commonly the concentration that gives 50% inhibition) was greater than 30 µM.
For the compound `Cc1cc(OC2CCN(CCc3ccccc3)CC2)c2ccccc2n1` [Compound 2, 2-methyl-4-(1-phenethyl-piperidin-4-yloxy)-quinoline], the IC50 was greater than 30 µM.
Take `Cc1cc(OC2CCN(C)CC2)c2ccccc2n1` [Compound 4, 2-methyl-4-(1-methyl-piperidin-4-yloxy)-quinoline]: the IC50 was greater than 30 µM.
Consider `Cc1cc(OC2CCN(Cc3ccccc3)CC2)c2cc(Br)ccc2n1` [Compound 7, 4-(1-benzyl-piperidin-4-yloxy)-6-bromo-2-methyl-quinoline], for which the IC50 fell in the range of 10 to 20 µM.
In the case of `COc1ccc2nc(C)cc(OC3CCN(Cc4ccccc4)CC3)c2c1` [Compound 8, 4-(1-benzyl-piperidin-4-yloxy)-6-methoxy-2-methyl-quinoline], the IC50 is greater than 30 µM.
As for `FC(F)(F)c1cc(OC2CCN(Cc3ccccc3)CC2)c2ccccc2n1` [Compound 13, 4-(1-benzyl-piperidin-4-yloxy)-2-trifluoromethyl-quinoline], the IC50 lay within 20 to 35 µM.
As to `Cc1cc(OC2CCN(CC(C)C)CC2)c2ccccc2n1` [Compound 29, 4-(1-isobutyl-piperidin-4-yloxy)-2-methyl-quinoline], the IC50 is greater than 30 µM.
Regarding `CCc1nc(N(C)C2CCN(Cc3ccccc3)CC2)c2ccccc2n1` [Compound 32, (1-benzyl-piperidin-4-yl)-(2-ethyl-quinazolin-4-yl)-methyl-amine], the IC50 is 15 to 25 µM.

Still in this test, the particulars now being: OpusExpress, two-electrode voltage clamp, dose-response.
As for `Cc1cc(OC2CCN(Cc3ccccc3)CC2)c2cc(Br)ccc2n1` [Compound 7, 4-(1-benzyl-piperidin-4-yloxy)-6-bromo-2-methyl-quinoline], the “effect on hASIC1a current evoked by pH 6.5 in oocytes (FIGS. 4A-4D)” value is given as “effective modulators; also recorded: dose-dependent reduction”.
With `CCc1nc(N(C)C2CCN(Cc3ccccc3)CC2)c2ccccc2n1` [Compound 32, (1-benzyl-piperidin-4-yl)-(2-ethyl-quinazolin-4-yl)-methyl-amine], the “effect on hASIC1a current evoked by pH 6.5 in oocytes (FIGS. 4A-4D)” value is recorded as “effective modulators; also recorded: dose-dependent reduction”.

Still in this test, the particulars now being: Table H; read-out: IC50 (μM) Opus Express (h1a).
As to `Cc1cc(OC2CCN(Cc3ccccc3)CC2)c2cc(Br)ccc2n1` [Compound 7, 4-(1-benzyl-piperidin-4-yloxy)-6-bromo-2-methyl-quinoline], the IC50 came to 13.2 µM.
In the case of `FC(F)(F)c1cc(OC2CCN(Cc3ccccc3)CC2)c2ccccc2n1` [Compound 13, 4-(1-benzyl-piperidin-4-yloxy)-2-trifluoromethyl-quinoline], the IC50 was found to be 27.6 µM.
Same read-out and setting: to `Cc1cc(OC2CCN(Cc3ccccc3)CC2)c2cccc(F)c2n1` [Compound 24, 4-(1-benzyl-piperidin-4-yloxy)-8-fluoro-2-methyl-quinoline] belongs 1.25 µM.
For the compound `CCc1nc(N(C)C2CCN(Cc3ccccc3)CC2)c2ccccc2n1` [Compound 32, (1-benzyl-piperidin-4-yl)-(2-ethyl-quinazolin-4-yl)-methyl-amine], the IC50 turned out to be 20.7 µM.
